Test results as given in the supplement of paper PMC13380429.

Key:
Settings in all cases: 72 h
Caco-2 [1] = assay: cell viability relative to DMSO; higher = less toxic
Calu-3 [2] = assay: as above
HepG2 [3] = assay: as above
U2OS [4] = assay: as above
Vero E6 [5] = assay: as above
Caco-2 [6] = assay: relative viability EC50 (midpoint between 100% and the lowest measured viability); higher = less toxic
Calu-3 [7] = assay: as above
HepG2 [8] = assay: as above
U2OS [9] = assay: as above
Vero E6 [10] = assay: as above
Caco-2 [11] = assay: drug sensitivity score (DSS) for viability; higher = more toxic; extreme values may be limits of the assay
Calu-3 [12] = assay: as above
HepG2 [13] = assay: as above
U2OS [14] = assay: as above
Vero E6 [15] = assay: as above

| Structure (SMILES) | cell viability (Caco-2 [1]; 1 nM) [%] | cell viability (Caco-2 [1]; 10 nM) [%] | cell viability (Caco-2 [1]; 100 nM) [%] | cell viability (Caco-2 [1]; 1000 nM) [%] | cell viability (Caco-2 [1]; 10000 nM) [%] | cell viability (Calu-3 [2]; 1 nM) [%] | cell viability (Calu-3 [2]; 10 nM) [%] | cell viability (Calu-3 [2]; 100 nM) [%] | cell viability (Calu-3 [2]; 1000 nM) [%] | cell viability (Calu-3 [2]; 10000 nM) [%] | cell viability (HepG2 [3]; 1 nM) [%] | cell viability (HepG2 [3]; 10 nM) [%] | cell viability (HepG2 [3]; 100 nM) [%] | cell viability (HepG2 [3]; 1000 nM) [%] | cell viability (HepG2 [3]; 10000 nM) [%] | cell viability (U2OS [4]; 1 nM) [%] | cell viability (U2OS [4]; 10 nM) [%] | cell viability (U2OS [4]; 100 nM) [%] | cell viability (U2OS [4]; 1000 nM) [%] | cell viability (U2OS [4]; 10000 nM) [%] | cell viability (Vero E6 [5]; 1 nM) [%] | cell viability (Vero E6 [5]; 10 nM) [%] | cell viability (Vero E6 [5]; 100 nM) [%] | cell viability (Vero E6 [5]; 1000 nM) [%] | cell viability (Vero E6 [5]; 10000 nM) [%] | relative viability EC50 (Caco-2 [6]) [µM] | relative viability EC50 (Calu-3 [7]) [µM] | relative viability EC50 (HepG2 [8]) [µM] | relative viability EC50 (U2OS [9]) [µM] | relative viability EC50 (Vero E6 [10]) [µM] | drug sensitivity score (Caco-2 [11]) | drug sensitivity score (Calu-3 [12]) | drug sensitivity score (HepG2 [13]) | drug sensitivity score (U2OS [14]) | drug sensitivity score (Vero E6 [15]) |
| --- | --- | --- | --- | --- | --- | --- | --- | --- | --- | --- | --- | --- | --- | --- | --- | --- | --- | --- | --- | --- | --- | --- | --- | --- | --- | --- | --- | --- | --- | --- | --- | --- | --- | --- | --- |
| Nc1ccn([C@@H]2O[C@@](CO)(CCl)[C@@H](O)[C@H]2F)c(=O)n1 [ALS-8112] | 95.2 | 96.4 | 96.1 | 93.9 | 98.9 | 104 | 102 | 93.8 | 100 | 90.9 | 90.2 | 94.3 | 104 | 96.1 | 82.8 | 102 | 99.2 | 102 | 96.8 | 97.4 | 100 | 97.7 | 97 | 98.8 | 94.8 | > 10 | > 10 | > 10 | > 10 | > 10 | 0 | 0 | 0.8 | 0 | 0 |
| CN1CCN(CCc2ccc(Cl)c(Cl)c2)CC1 [BD-1063] | 98.6 | 100 | 95 | 91.3 | 92.2 | 91.3 | 96.2 | 102 | 96.9 | 101 | 108 | 102 | 103 | 92.4 | 87.7 | 94.2 | 100 | 93.9 | 100 | 95.3 | 105 | 101 | 105 | 95.1 | 93.9 | > 10 | > 10 | > 10 | > 10 | > 10 | 0 | 0 | 0.4 | 0 | 0 |
| CCC[C@@H]1CC(=O)N([C@@H](CC)C(N)=O)C1 [Brivaracetam] | 89.1 | 94.5 | 93.8 | 102 | 98.8 | 100 | 103 | 92.7 | 100 | 97.2 | 101 | 96.2 | 101 | 97.9 | 114 | 102 | 98 | 102 | 96.2 | 99.6 | 89.6 | 96.2 | 88.3 | 97.5 | 107 | > 10 | > 10 | > 10 | > 10 | > 10 | 0 | 0 | 0 | 0 | 0 |
